Key:
[1] = molecular target: T1, Catenin beta-1 (Homo sapiens) (UniProt P35222); details: dose 125.0 µM
T1 sequence (whole entry): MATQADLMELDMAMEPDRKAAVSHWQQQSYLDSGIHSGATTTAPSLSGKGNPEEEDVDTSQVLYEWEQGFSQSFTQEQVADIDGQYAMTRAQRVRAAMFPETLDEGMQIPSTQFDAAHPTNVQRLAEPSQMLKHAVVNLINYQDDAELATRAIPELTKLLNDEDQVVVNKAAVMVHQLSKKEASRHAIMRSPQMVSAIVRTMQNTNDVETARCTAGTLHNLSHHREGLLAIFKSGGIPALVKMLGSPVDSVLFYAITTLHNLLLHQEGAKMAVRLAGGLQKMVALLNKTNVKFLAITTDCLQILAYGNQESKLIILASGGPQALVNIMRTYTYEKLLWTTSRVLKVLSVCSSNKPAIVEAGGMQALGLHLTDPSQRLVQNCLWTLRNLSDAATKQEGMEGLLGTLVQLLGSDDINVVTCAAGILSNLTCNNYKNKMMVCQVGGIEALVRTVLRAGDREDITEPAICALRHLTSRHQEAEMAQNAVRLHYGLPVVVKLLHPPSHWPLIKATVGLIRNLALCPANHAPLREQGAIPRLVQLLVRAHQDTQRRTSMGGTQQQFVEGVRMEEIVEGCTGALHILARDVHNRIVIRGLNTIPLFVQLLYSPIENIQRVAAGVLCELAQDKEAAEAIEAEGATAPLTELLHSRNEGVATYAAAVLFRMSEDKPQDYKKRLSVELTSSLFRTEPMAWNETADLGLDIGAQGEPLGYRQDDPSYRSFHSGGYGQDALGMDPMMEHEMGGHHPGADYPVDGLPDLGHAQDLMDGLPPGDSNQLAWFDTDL
Description: Thermal stabilization of wildtype beta catenin ARD (148 to 662 residues) (unknown origin) assessed as change in melting temperature at 125 uM by DSF method

[2] = Inhibition of Wnt/beta-catenin (unknown origin) transcriptional activity pathway transfected human H1299 cells by measuring luciferase activity after 24 hrs by TOP-flash luciferase reporter gene assay; format: cell-based; details: nci-h1299
A549 = test: Antiproliferative activity against human A549 cells expressing wnt2 incubated for 72 hrs by celltitre 96 non-radioactive cell proliferation assay kit; format: functional, cell-based; details: A549, 72 h
TCF4-CTNNB1 complex = molecular target: T2, TCF4-CTNNB1 complex (Homo sapiens, UniProt P35222+Q9NQB0); test: Inhibition of beta catenin/recombinant GST tagged Tcf4 protein protein interaction in human HCT-116 cells; format: cell-based
T2 sequence (P35222 whole entry): T1 sequence (whole entry)
T2 sequence (P15884 whole entry): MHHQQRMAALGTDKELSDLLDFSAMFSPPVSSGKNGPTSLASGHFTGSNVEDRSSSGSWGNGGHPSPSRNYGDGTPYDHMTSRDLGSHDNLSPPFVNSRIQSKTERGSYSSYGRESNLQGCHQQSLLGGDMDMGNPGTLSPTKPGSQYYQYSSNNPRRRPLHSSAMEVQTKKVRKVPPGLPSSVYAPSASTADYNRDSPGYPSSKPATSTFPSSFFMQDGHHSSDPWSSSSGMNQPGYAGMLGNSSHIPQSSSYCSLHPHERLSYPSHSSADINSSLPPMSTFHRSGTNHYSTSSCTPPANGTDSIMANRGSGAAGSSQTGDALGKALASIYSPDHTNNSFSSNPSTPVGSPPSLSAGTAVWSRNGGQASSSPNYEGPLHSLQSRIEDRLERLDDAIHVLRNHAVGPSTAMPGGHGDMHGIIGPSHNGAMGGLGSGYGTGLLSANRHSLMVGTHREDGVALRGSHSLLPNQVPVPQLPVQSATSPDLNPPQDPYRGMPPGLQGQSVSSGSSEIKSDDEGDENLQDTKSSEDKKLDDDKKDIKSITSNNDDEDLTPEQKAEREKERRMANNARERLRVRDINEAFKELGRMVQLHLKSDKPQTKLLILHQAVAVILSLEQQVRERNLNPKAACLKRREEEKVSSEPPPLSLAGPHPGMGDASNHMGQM

Catenin beta-1 [3] = molecular target: T3, Catenin beta-1 (Homo sapiens, UniProt P35222)
T3 sequence (P35222 whole entry): T1 sequence (whole entry)
Description: Binding affinity to beta catenin ARD (142 to 686 residues) (unknown origin) assessed as inhibition constant by fluorescence polarisation assay

[4] = molecular target: T1, Catenin beta-1 (Homo sapiens)
Description: Binding affinity to beta catenin ARD (142 to 686 residues) (unknown origin) assessed as change in entropy by VP-ITC method

Catenin beta-1 [5] = molecular target: T3, Catenin beta-1; test: Inhibition of beta catenin in HEK293 cells by TOPflash luciferase reporter assay; format: cell-based
[6] = Inhibition of Tcf in HEK293 cells by TOPflash luciferase reporter assay; format: cell-based; details: Homo sapiens
SW480 [7] = test: Inhibition of cell growth in human SW480 cells incubated for 24 hrs by WST-1 assay; format: functional
HCT-116 [8] = test: Inhibition of cell growth in human HCT-116 cells incubated for 24 hrs by WST-1 assay; format: functional
Catenin beta-1 [9] = molecular target: T3, Catenin beta-1; test: Binding affinity to N-terminal FLAG tagged beta catenin alpha helix (H1 - 141 to 149 aa) of armadillo repeat domain (unknown origin) by STD/HSQC based NMR analysis
[10] = molecular target: T4, beta-catenin-B-cell lymphoma 9 protein complex (Homo sapiens, UniProt P35222); test: Binding affinity to N-terminal FLAG tagged beta catenin (134 to 671 residues)/FLAG tagged BCL9 domain 2 (343 to 396 residues) (unknown origin) protein protein interaction assessed as inhibition constant; format: protein-complex assay
T4 sequence (P35222 whole entry): T1 sequence (whole entry)
T4 sequence (O00512 whole entry): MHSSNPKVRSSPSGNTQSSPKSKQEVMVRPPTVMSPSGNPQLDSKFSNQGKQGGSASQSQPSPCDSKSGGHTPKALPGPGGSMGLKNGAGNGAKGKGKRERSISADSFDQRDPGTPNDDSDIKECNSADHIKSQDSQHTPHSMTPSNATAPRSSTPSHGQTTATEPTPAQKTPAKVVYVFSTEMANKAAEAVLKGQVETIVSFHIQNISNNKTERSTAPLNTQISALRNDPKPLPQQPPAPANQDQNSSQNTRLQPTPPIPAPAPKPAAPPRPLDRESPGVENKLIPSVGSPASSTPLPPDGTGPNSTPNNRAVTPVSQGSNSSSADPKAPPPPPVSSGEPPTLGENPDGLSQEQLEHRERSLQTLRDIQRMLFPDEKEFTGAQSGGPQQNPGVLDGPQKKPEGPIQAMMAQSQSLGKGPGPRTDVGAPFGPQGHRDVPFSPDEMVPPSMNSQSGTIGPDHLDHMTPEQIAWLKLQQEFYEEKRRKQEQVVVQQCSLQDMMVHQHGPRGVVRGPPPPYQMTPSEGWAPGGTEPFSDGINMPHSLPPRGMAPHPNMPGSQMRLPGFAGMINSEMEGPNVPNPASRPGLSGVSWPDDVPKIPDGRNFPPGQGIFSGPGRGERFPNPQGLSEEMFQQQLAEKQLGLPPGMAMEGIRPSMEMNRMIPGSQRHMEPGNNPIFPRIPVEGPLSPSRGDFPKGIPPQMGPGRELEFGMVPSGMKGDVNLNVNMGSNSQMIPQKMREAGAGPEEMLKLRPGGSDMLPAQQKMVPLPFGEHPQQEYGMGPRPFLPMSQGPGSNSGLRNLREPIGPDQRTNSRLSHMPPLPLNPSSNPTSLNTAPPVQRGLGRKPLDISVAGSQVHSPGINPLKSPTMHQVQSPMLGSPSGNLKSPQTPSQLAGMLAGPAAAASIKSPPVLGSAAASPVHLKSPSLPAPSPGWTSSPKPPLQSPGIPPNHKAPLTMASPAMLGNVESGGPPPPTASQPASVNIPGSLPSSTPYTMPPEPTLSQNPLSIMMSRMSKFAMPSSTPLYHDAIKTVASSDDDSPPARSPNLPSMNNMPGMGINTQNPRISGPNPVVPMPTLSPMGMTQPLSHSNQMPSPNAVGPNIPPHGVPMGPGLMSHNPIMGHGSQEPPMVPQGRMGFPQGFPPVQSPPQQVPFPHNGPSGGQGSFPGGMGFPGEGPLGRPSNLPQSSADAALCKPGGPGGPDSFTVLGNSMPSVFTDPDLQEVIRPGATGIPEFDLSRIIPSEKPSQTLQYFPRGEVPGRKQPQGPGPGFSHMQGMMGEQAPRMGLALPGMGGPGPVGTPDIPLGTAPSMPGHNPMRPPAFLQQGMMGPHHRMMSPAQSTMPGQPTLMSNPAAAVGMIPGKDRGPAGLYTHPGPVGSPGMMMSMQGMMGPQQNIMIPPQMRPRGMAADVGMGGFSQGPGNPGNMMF

SW480 [11] = test: Cytotoxicity against human SW480 cells assessed as cell viability incubated for 72 hrs by cell titre glo assay; format: functional, cell-based; details: SW480, 72 h
HCT-116 [12] = test: Cytotoxicity against human HCT-116 cells assessed as cell viability incubated for 72 hrs by cell titre glo assay; format: functional, cell-based; details: HCT-116, 72 h
SW-620 = test: Cytotoxicity against human SW-620 cells assessed as cell viability incubated for 72 hrs by cell titre glo assay; format: functional, cell-based; details: SW-620, 72 h
[13] = molecular target: Poly(ADP-ribose) glycohydrolase (Homo sapiens, UniProt Q86W56); test: Binding affinity to human PARG assessed as dissociation constant by SPR analysis
Chain of Poly(ADP-ribose) glycohydrolase (Q86W56 whole entry): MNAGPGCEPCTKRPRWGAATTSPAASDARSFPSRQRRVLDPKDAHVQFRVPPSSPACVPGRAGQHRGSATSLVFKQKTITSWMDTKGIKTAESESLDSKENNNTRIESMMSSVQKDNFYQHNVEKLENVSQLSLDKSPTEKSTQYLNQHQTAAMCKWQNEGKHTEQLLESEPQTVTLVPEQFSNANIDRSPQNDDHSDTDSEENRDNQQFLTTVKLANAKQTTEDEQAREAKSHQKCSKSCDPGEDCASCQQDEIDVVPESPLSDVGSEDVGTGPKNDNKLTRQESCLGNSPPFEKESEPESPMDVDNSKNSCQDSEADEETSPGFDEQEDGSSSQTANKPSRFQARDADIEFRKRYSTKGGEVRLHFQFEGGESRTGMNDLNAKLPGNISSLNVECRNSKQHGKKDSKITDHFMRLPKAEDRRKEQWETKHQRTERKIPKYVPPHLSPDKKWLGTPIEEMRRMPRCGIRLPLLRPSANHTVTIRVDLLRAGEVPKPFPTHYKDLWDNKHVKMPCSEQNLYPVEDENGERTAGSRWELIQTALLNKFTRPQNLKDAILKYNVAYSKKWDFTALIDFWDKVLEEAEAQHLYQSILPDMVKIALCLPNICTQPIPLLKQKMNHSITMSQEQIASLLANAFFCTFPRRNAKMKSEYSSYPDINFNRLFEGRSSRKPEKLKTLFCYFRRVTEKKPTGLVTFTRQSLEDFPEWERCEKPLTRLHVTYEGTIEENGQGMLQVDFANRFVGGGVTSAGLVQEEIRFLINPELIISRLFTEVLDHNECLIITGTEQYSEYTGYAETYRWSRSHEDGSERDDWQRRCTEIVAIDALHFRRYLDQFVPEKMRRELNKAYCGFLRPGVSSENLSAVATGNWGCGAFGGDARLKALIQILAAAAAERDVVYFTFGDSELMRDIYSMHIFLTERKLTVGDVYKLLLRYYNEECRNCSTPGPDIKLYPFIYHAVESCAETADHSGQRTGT

[14] = Downregulation of c-Myc protein expression level in human ASPC1 cells; format: functional, cell-based
[15] = Downregulation of c-Myc protein expression level in human PANC-1 cells; format: functional, cell-based

| SMILES | ΔTm [1] [°C] | other results |
| --- | --- | --- |
| O=C(O)c1ccccc1Oc1ccccc1 | -0.1 | – |
| CCc1ccc(-c2nc(CSCC(=O)NCCc3ccccc3)c(C)o2)cc1 | -0.7 | – |
| Cc1cc(Cl)ccc1/N=C\c1ccc(F)c(Oc2ccccc2)c1 | 0.1 | – |
| Cc1ccc2nc(N(C)C)nc(NCc3ccc(C(=O)NCc4ccc(F)cc4)cc3)c2c1 | -0.7 | – |
| O=C1C(Cl)=C(Nc2ccc(S(=O)(=O)Nc3ccccn3)cc2)C(=O)c2ccccc21 | – | IC50 [2]: 2300 nM |
| CN(C)CCOc1nc2ccccc2nc1C#Cc1ccccc1 | 0 | – |
| O=C(Nc1ccc(O[C@H]2CCNC2)c(-c2ccc(F)cc2)c1)c1ccc(O[C@@H]2CCNC2)c(-c2ccc(F)c(F)c2)c1 | -0.5 | – |
| Fc1ccc2nc(OCCN3CCCC3)c(C#Cc3ccccc3)nc2c1 | 0.1 | IC50 (A549): 10 µM |
| O=C(O)c1ccccc1-c1c2ccc(=O)cc-2oc2cc(O)ccc12 | 0.1 | – |
| COc1c(C[C@H](C)OC(=O)Oc2ccc(O)cc2)c2c3c(C[C@H](C)OC(=O)c4ccccc4)c(OC)c(=O)c4c(O)cc(OC)c(c5c(OC)cc(O)c(c1=O)c52)c43 | – | IC50 (TCF4-CTNNB1 complex): 10 µM |
| On1ncc2cc(CCc3nn[nH]n3)ccc21 | – | Ki (Catenin beta-1 [3]): 3 µM; -TdeltaS [4]: -33 kJ/mol |
| CCc1cccc2c3c([nH]c12)[C@@](CC)(CC(=O)O)OCC3 [SDX-101] | -0.5 | IC50 (Catenin beta-1 [5]): 683 µM; IC50 [6]: 46 µM |
| Cc1ccc(/C=N/NC(=O)c2ccccc2Oc2ccccc2)o1 | -0.5 | – |
| O=C(CN1C2=NCCN2c2ccccc21)c1ccc(-c2ccccc2)cc1 | -0.1 | GI50 (SW480 [7]): 13.2 µM; GI50 (HCT-116 [8]): 13.9 µM |
| CC(C)c1cc2c(c(O)c1O)[C@@]1(C(=O)O)CCCC(C)(C)[C@@H]1CC2 [CARNOSIC ACID] | -2.7 | Kd (Catenin beta-1 [9]): 20 µM; Ki [10]: 3 µM |
| Cn1ncnc2c(=O)n(C)c(=O)nc1-2 | -0.5 | – |
| COC(=O)c1cccc(NS(=O)(=O)c2ccc(C)cc2)c1 | -0.5 | – |
| CN(C)c1ccc(-c2nc3cc(F)ccc3[nH]2)cc1 | -0.1 | – |
| COc1cccc(/C=C2/SC(=S)N(CCC(=O)O)C2=O)c1OC | -0.5 | – |
| c1ccc(CCNc2nc(N3CCCCC3)nc3ccccc23)cc1 | -0.6 | IC50 (SW480 [11]): 5.9 µM; IC50 (HCT-116 [12]): 6.2 µM; IC50 (SW-620): 6.7 µM |
| CC(C)(C)NS(=O)(=O)c1ccc2c(c1)C(=O)c1ccccc1C2=O | – | Kd [13]: 1.45 nM |
| COc1c(C[C@H](C)OC(=O)c2c(C)cc(O)cc2O)c2c3c(C[C@H](C)OC(=O)c4c(C)cc(O)cc4O)c(OC)c(=O)c4c(O)cc(OC)c(c5c(OC)cc(O)c(c1=O)c52)c43 | – | IC50 (TCF4-CTNNB1 complex): 10 µM |
| Cc1ccc(S(=O)(=O)Nc2cccc(C(=O)O)c2)cc1 | -0.5 | – |
| COc1ccc2[nH]c3c(-c4cccc5ccccc45)nccc3c2c1 | -0.9 | IC50 [14]: < 500 nM; IC50 [15]: < 500 nM |
